Data published in ChEMBL document CHEMBL1145215, “Design, synthesis, and biological evaluation of achiral analogs of duocarmycin SA” (Bioorg Med Chem Lett, 2005).

Key:
[1] = tested on: K562; experiment: Cytotoxicity was determined against K562 (chronic human myeloid leukemia )cells; assay type: functional, cell-based
[2] = tested on: LS174T; experiment: Cytotoxicity against LS174T (human colon carcinoma )cells; assay type: functional, cell-based

| SMILES | IC50 [1] [nM] | IC50 [2] [nM] |
| --- | --- | --- |
| COc1cc2cc(C(=O)Nc3cc(O)ccc3CCCl)[nH]c2c(OC)c1OC | 1470 | 13800 |
| COC(=O)c1[nH]c2c(O)cc(NC(=O)c3cc4cc(OC)c(OC)c(OC)c4[nH]3)c(CCCl)c2c1C(=O)OC | 25 | 4 |
| COC(=O)c1[nH]c2c(O)cc(NC(=O)c3cc4cc(NC(=O)c5cc6ccccc6o5)ccc4[nH]3)c(CCCl)c2c1C(=O)OC | 25 | 4 |
